Where two headings read alike, the source gives them in different places.

The text below walks through data of publication PMC9781444, “Pyridyl Methylsulfinyl Benzimidazole Derivatives as Promising Agents against Giardia lamblia and Trichomonas vaginalis” (Molecules, 2022).

Data set [1] has as its target T1, TvG6PD::6PGL (Trichomonas vaginalis, UniProt A2DBT5). Conditions: cited from earlier work.
Data set [2] has as its target T2, GlG6PD::6PGL (Giardia intestinalis, UniProt A8BWM5). Nature of the data set: GlG6PD::6PGL enzyme inactivation assay. The class given is biochemical, G. lamblia. Conditions: for Inhibition (%) at 400 µM of GlG6PD::6PGL: 400 µM compound, 0.2 mg/mL enzyme, 37 °C, 2 h, relative to enzyme without inhibitor; for inhibition at 400 µM: read-out: Inhibition (%) at 400 µM of GlG6PD::6PGL; for kinact/KI: read-out: second-order inactivation rate constant k2, GlG6PD::6PGL. As to the method: (§1) The G6PD domain activity of the recombinant proteins was spectrophotometrically measured at 25 °C by monitoring the reduction in NADP^+ at 340 nm. The assay was performed with 1 mL of standard reaction mixture containing 0.1 M Tris-HCl, 0.01 M MgCl2, 1 mM NADP^+, and 1 mM glucose-6-phosphate (G6P) at pH 8.3. The reaction was initiated with the addition of 1 µg/mL fused GlG6PD::6PGL or TvG6PD::6PGL enzymes.
(§2) Inactivation assays were performed with the compounds against GlG6PD::6PGL and TvG6PD::6PGL. Thus, all the compounds were activate immediately before the experiments as previously reported and diluted using dimethyl sulfoxide (DMSO) as a solvent. For the assay, 0.2 mg/mL of the enzyme was incubated with the compounds at a concentration of 400 µM at 37 °C for 2 h. Following incubation, the activity was measured with a standard reaction mixture. Only the compounds that reduced the activity of the enzyme by more than 50% were used in the subsequent experiments.
(§3) Then, aliquots from these incubations were withdrawn, and the residual activity was determined under standard conditions. The results are reported as the percentage of residual activity (using the activity of each enzyme incubated without any compound as 100% activity) versus the compound’s concentration.
(§4) The second-order rate constants of inactivation for each one of the compounds were calculated by obtaining the pseudo-first-order rate constant (k1) values. Pseudo-first-order inactivation rate constants (k1) were obtained at four or five fixed concentrations for each of the compounds. At the indicated times, aliquots were withdrawn to determine residual activity. Then, residual activity data were fitted using the monoexponential decay equation, as previously reported. The previously obtained k1 values were replotted against the concentrations of each compound, and the slope created by these plots corresponds to the second-order inactivation constant k2 (M^−1·s^−1).

Data set [3] has as its target T1, TvG6PD::6PGL. As to the kind of experiment: TvG6PD::6PGL enzyme inactivation assay. As to conditions: for inhibition at 400 µM: read-out: Inhibition (%) at 400 µM of TvG6PD::6PGL, 400 µM compound, 0.2 mg/mL enzyme, 37 °C, 2 h, relative to enzyme without inhibitor; for kinact/KI: read-out: second-order inactivation rate constant k2, TvG6PD::6PGL, slope of k1 versus compound concentration. The class given is biochemical, T. vaginalis. As to the method: as §1, §2, §3, §4

Data set [4] has as its target T2, GlG6PD::6PGL. As to the kind of experiment: Circular dichroism of GlG6PD::6PGL with compounds. Details: species or system G. lamblia. Conditions: compound at IC50 concentration, 2 h, 37 °C, protein 0.5 mg/mL. Here is the method: One control containing only enzyme was used in each assay. Then, the proteins were loaded in a quartz cell with a 0.1 cm path length, and spectral scans were recorded at 25 °C in ultraviolet circular dichroism (UV-CD) ranging from 200 to 260 nm. The spectra of the blanks (buffer P solution containing each of the compounds) were subtracted from all the obtained spectra that contained the protein. All the CD data were reported as molar ellipticity. The experiments were performed in triplicate.
In general terms: CD spectra are sensitive to the conformation of chiral molecules.

In data set [5] the target is T2, GlG6PD::6PGL. As to the kind of experiment: Intrinsic fluorescence of GlG6PD::6PGL with compounds. Further details: species or system G. lamblia. Conditions: compound at IC50 concentration, 2 h, 37 °C; for maximum intrinsic fluorescence intensity of GlG6PD::6PGL: control 874 a.u. As to the method:
(§5) The effect of the compounds on the tertiary structure (3D) of the GlG6PD::6PGL and TvG6PD::6PGL proteins was evaluated by monitoring the changes in the intrinsic and extrinsic fluorescence using a Perkin-Elmer LS-55 spectrofluorometer (Perkin-Elmer, Wellesley, MA, USA). […] Following incubation, the proteins were excited at 280 nm, and we recorded the emission spectra from 310 to 500 nm with a scan speed of 150 nm/min using excitation and emission slits of 4 and 8 nm, respectively. The spectra of the blanks (buffer phosphate containing each of the compounds) were subtracted from all the obtained spectra that contained the protein, and the spectrum of the enzyme without the compound was used as control. The final spectrum for each compound was the average of five scans.

Data set [6] addresses T1, TvG6PD::6PGL. Nature of the data set: Intrinsic fluorescence of TvG6PD::6PGL with compounds. As to conditions: compound at IC50 concentration, 2 h, 37 °C; native protein 673 a.u. Further details: species or system T. vaginalis. As to the method:
as §5

For data set [7], the system named is T. vaginalis trophozoites. Nature of the data set: Anti-T. vaginalis assay (trophozoite viability, trypan blue). The class given is cell-based. Conditions: for reduction of T. vaginalis trophozoite viability at 6 µM / reduction of T. vaginalis trophozoite viability at 100 μM / IC50: 24 h; for reduction of T. vaginalis trophozoite viability at 100 μM: relative to negative control; for selectivity index (SI), T. vaginalis: Caco-2 CC50 relative to T. vaginalis IC50; for IC50: Trichomonas vaginalis, trophozoites, 37 °C. As to the method:
The isolate T. vaginalis, Donne ATCC 30236 was axenically grown in trypticase–yeast extract–maltose (TYM) medium (pH 6.0), supplemented with 10% sterile horse serum (previously inactivated at 56 °C for 30 min), and incubated at 37 °C under microaerobic conditions. The trophozoites were axenically maintained, and a trypan blue (0.4%) exclusion assay was performed to ensure that the minimum viability of 95% and logarithmic growth phase were achieved before proceeding to the antiparasitic assay.
Drug susceptibility assays were performed to analyze the trichomonacidal potential of O2N-BZM7 and O2N-BZM9 compounds against T. vaginalis, as previously described. The compounds were diluted in dimethylsulfoxide (DMSO) as a vehicle for solubilization. […] Trophozoites were adjusted to an initial density of 2.6 × 10^5 trophozoites/mL of TYM medium. Then, 1.5 mL tubes were seeded with […] of T. vaginalis trophozoites/tubes (2.6 × 10^5 trophozoites/mL), O2N-BZM7 and O2N-BZM9 were added, and tubes were incubated at 37 °C with 5% CO2 for 24 h. After incubation, trophozoites were counted with trypan blue (0.4%) (1:1, v/v) on a Neubauer chamber to determine the trophozoites’ motility, morphology, and viability. Three controls were used in each assay: a negative control containing only trophozoites, a 0.06% DMSO control, and a positive control containing MTZ at 100 μM (Sigma-Aldrich, St. Louis, MO, USA). The IC50 was calculated using the GraphPad Prism 8.0 software Inc. version 8.0.2 (263) (San Diego, CA, USA).

The subject of data set [8] is G. lamblia. As to the kind of experiment: In vitro antigiardial activity. The class given is cell-based. As to conditions: for selectivity index (SI), G. lamblia: Caco-2 CC50 relative to G. lamblia IC50.
Data set [9] relates to GlTIM. Further details: method as in PMID 32882836. As to conditions: cited from earlier work; for IC50: read-out: IC50 TIM enzyme from G. lamblia.
The test system of data set [10] is G. lamblia. Details: method as in PMID 32882836. As to conditions: previous study; cited from earlier work.
The subject of data set [11] is Caco-2 cells. As to conditions: read-out: Caco-2 CC50, metronidazole; cited from earlier work.

T1 sequence (A2DBT5 entry or part of it): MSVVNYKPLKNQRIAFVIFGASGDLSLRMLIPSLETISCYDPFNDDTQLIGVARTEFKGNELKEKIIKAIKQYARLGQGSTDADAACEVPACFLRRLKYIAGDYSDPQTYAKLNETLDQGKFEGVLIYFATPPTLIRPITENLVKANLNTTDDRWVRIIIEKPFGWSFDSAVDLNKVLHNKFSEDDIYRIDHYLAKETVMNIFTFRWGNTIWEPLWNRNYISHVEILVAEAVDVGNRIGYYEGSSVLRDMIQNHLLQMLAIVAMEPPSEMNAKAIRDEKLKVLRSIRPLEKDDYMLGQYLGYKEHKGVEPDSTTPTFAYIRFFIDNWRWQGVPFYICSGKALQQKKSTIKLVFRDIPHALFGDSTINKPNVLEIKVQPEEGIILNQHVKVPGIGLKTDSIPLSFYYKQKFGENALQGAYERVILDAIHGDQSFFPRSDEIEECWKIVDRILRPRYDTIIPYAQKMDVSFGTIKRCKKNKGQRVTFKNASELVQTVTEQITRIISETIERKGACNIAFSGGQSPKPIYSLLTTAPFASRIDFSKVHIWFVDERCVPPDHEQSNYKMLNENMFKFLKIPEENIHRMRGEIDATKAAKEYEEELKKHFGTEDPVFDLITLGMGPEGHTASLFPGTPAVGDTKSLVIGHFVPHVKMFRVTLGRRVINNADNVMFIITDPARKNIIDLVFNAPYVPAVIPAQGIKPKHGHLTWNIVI
T2 sequence (A8BWM5 entry or part of it): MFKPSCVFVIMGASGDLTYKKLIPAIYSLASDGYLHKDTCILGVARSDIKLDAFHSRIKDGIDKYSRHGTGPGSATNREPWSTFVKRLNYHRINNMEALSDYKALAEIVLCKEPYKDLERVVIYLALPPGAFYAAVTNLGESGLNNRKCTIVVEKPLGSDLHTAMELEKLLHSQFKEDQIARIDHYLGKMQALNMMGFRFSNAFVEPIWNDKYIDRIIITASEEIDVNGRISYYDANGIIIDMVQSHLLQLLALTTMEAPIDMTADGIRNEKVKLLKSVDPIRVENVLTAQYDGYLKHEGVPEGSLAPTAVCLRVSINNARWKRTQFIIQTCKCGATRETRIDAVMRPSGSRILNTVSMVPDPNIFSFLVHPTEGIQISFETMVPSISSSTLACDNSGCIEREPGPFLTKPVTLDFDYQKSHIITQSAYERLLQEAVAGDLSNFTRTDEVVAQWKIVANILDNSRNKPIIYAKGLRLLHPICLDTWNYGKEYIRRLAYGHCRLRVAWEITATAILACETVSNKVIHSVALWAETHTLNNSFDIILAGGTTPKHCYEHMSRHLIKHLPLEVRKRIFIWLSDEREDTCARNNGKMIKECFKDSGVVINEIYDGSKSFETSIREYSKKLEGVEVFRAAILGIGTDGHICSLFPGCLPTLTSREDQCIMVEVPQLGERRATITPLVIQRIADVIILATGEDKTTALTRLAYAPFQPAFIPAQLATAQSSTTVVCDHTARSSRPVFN

As for `O=C(Nc1ccc(Cl)cc1)Nc1ncc([N+](=O)[O-])s1` [CNZ-3], the “k2 for TvG6PD::6PGL protein, in-house library compounds” value in [1] is 0.66 M⁻¹ s⁻¹.

Take `Cc1c(OCC(F)(F)F)ccnc1C[S+]([O-])c1nc2ccc(N)cc2[nH]1` (stereo not shown) [Compound H2N-BZM6, 2-{[3-methyl-4-(2,2,2-trifluoroethoxy)pyridin-2-yl]methanesulfinyl}-1H-benzimidazol-6-amine]: in [2], the “Inhibition (%) at 400 µM of GlG6PD::6PGL” value is listed as “complete activity of the GlG6PD::6PGL enzyme was eradicated” and the inhibition at 400 µM was 100 ± 5%. Further, the inhibition at 400 µM in data set [3] was 12 ± 5%.

By IC50 is commonly meant the midpoint of a concentration-inhibition curve. With `O=[N+]([O-])c1ccc2nc([S+]([O-])Cc3ccccn3)[nH]c2c1` (stereo not shown) [Compound O2N-BZM7, 6-nitro-2-[(pyridin-2-yl)methanesulfinyl]-1H-benzimidazole], in data set [2], the “Inhibition (%) at 400 µM of GlG6PD::6PGL” value is “complete activity of the GlG6PD::6PGL enzyme was eradicated”, the inhibition at 400 µM worked out at 100 ± 5% and the kinact/KI turned out to be 1.9 M⁻¹ s⁻¹. The kinact/KI in data set [3] worked out at 0.85 M⁻¹ s⁻¹. For the same compound, in [4], the “change of secondary structure (CD spectra) of GlG6PD::6PGL” value is given as “did not induce alterations of the secondary structure”. In data set [5], the “reduction of intrinsic fluorescence of GlG6PD::6PGL compared to control” value is 62% and the “maximum intrinsic fluorescence intensity of GlG6PD::6PGL” value is recorded as 329 a.u. In addition, the “maximal intrinsic fluorescence intensity of TvG6PD::6PGL” value in data set [6] is 415 a.u. Moreover, in data set [7], the “reduction of T. vaginalis trophozoite viability at 6 µM” value is given as 52%; the “reduction of T. vaginalis trophozoite viability at 100 μM” value came to 100%; the “selectivity index (SI), T. vaginalis” value was determined as 106; half-maximal inhibition (IC50) required 6 µM. In data set [8], the “selectivity index (SI), G. lamblia” value is 45. In data set [9], the “k2 for inactivation of GlTIM enzyme” value was 3.2 M⁻¹ s⁻¹ and the IC50 was 12 µM. For the same compound, the IC50 in data set [10] is 14 µM.

As for `Cc1c(OCC(F)(F)F)ccnc1C[S+]([O-])c1nc2ccc([N+](=O)[O-])cc2[nH]1` (stereo not shown) [Compound O2N-BZM9, 2-{[3-methyl-4-(2,2,2-trifluoroethoxy)pyridin-2-yl]methanesulfinyl}-6-nitro-1H-benzimidazole], in data set [2], the IC50 is 15 µM, the “Inhibition (%) at 400 µM of GlG6PD::6PGL” value is listed as “complete activity of the GlG6PD::6PGL enzyme was eradicated”, the inhibition at 400 µM came out at 100 ± 5% and the kinact/KI stood at 6.1 M⁻¹ s⁻¹. In data set [3], the inhibition at 400 µM was more than 70% and the kinact/KI worked out at 1.62 M⁻¹ s⁻¹. Also, the “change of secondary structure (CD spectra) of GlG6PD::6PGL” value in data set [4] is given as “did not induce alterations of the secondary structure”. Moreover, in data set [5], the “reduction of intrinsic fluorescence of GlG6PD::6PGL compared to control” value came to 62% and the “maximum intrinsic fluorescence intensity of GlG6PD::6PGL” value is on record as 329 a.u. Further, in data set [6], the “maximal intrinsic fluorescence intensity of TvG6PD::6PGL” value was 102 a.u. In addition, in data set [7], the “reduction of T. vaginalis trophozoite viability at 6 µM” value was 52%; the “reduction of T. vaginalis trophozoite viability at 100 μM” value was 100%; the “selectivity index (SI), T. vaginalis” value amounted to 160; 4 µM corresponded to half-maximal inhibition (IC50). For the same compound, the “selectivity index (SI), G. lamblia” value in data set [8] worked out at 39. Also, in data set [9], the “k2 for inactivation of GlTIM enzyme” value was 2.8 M⁻¹ s⁻¹ and the IC50 was 20 µM. For the same compound, the IC50 in data set [10] was 17 µM.

With `[O-][S+](Cc1ccccn1)c1nc2ccccc2[nH]1` (stereo not shown) [H-BZM1, 2-[(pyridin-2-yl)methanesulfinyl]-1H-benzimidazole], the results for the inhibition at 400 µM in data set [2] and in [3] were 62 ± 5% and 7 ± 5%, respectively.

For the compound `COc1c(C)cnc(C[S+]([O-])c2nc3ccccc3[nH]2)c1C` (stereo not shown) [H-BZM2, 2-[(4-methoxy-3,5-dimethylpyridin-2-yl)methanesulfinyl]-1H-benzimidazole], in data set [2], the half-maximal inhibitory concentration (IC50) turned out to be 24 µM, the “Inhibition (%) at 400 µM of GlG6PD::6PGL” value is “complete activity of the GlG6PD::6PGL enzyme was eradicated”, the inhibition at 400 µM stood at 100 ± 5% and the kinact/KI is 3.3 M⁻¹ s⁻¹. The inhibition at 400 µM in data set [3] turned out to be 47 ± 5%. For the same compound, in data set [9], the concentration for half-maximal inhibition (IC50) was 37 µM.

For `O=C(COc1ccc(/C=C2\SC(=O)NC2=O)cc1)NC1CCN(Cc2ccccc2)CC1` [MCC-7], the “k2 for TvG6PD::6PGL protein, in-house library compounds” value in data set [1] is 0.26 M⁻¹ s⁻¹.

In general, CC50 refers to the concentration that lowers cell viability or growth by half. In the case of `Cc1ncc([N+](=O)[O-])n1CCO` [Metronidazole, reference compound], in data set [7], the “selectivity index (SI), T. vaginalis” value was found to be 1.6 and half-maximal inhibition (IC50) required 12 µM. Besides, the “selectivity index (SI), G. lamblia” value in [8] came to 3.9. Besides, the half-maximal inhibitory concentration (IC50) in data set [8] (Giardia duodenalis, no reference given, read-out: G. lamblia IC50, metronidazole positive control) stood at 4.8 µM. In addition, in [11], the CC50 is 19 µM.
